# “Also recorded” adds a separate entry of the source.
# How the values were obtained:
# [1] = system: mechanical hypersensitivity; parameters: method as in PMID 30157134, PMID 32677089; details: cited from earlier work
# [2] = system: p-ACC in mouse DRG neurons; assay: p-ACC immunocytochemistry in cultured DRG neurons; type: cell-based; details: 16 h; FEM-1689 10, 100, 1,000 nM; A769662 100 µM; wild-type and TMEM97KO neurons
# Experimental: (§1) The ICC protocol was based on a previously published protocol ([76]). […] Cells were blocked with 10% normal goat serum (NGS) in PBS-triton X (0.1%). […] Antibodies were incubated at 4 °C overnight. […] It was washed with PBS twice. […] Images were analyzed using Olympus CellSens. […] Number of cells analyzed are detailed in SI Appendix, Tables S3 and S4. […]
# (§2) T his BSA gradient containing the cells was centrifuged at 900g for 5 min at room temperatur e.
# (§3) The pellet containing the cells was resuspended in Br ainPhys media (STEMCell #05790) containing 2% […]
# (§4) 1% Gluta Max (Gibco # 350 5 0061). Hu man DRG ne uron s were plated a nd grown o n glass coverslips coate d with po ly-D-lysine (Sigma #P7405). C ultured D RG neurons were plated for 24 hours before being treated.
# (§5) Methylglyoxal (Sigma- Aldrich #M0252) and F EM- 1689 were serially diluted in media.
# (§6) Mouse samples - DRG cultures […]
# (§7) anesthesia and decapitated. […]
# (§8) section above with minor differences.
# (§9) Mouse DRG neurons were grown in
# (§10) SAS-0132 and DKR-1677 were […]
# (§11) dissolved in 100% DMSO to a final concentr ation of 200mM and stored at - 20 °C. and DKR-1677 were serially diluted in media. Untreated media was completely replaced with media containing each compound. […]
# (§12) Slides were […]
# incubated with 1:2 diluted hydrogen peroxide in distilled water for 10 min at r oom temper ature and washed twice in distilled water. […]
# [3] = system: p-eIF2α in mouse DRG neurons; assay: p-eIF2α immunocytochemistry in cultured DRG neurons; type: cell-based; details: 16 h; for phosphorylation of eIF2α: wild-type mouse DRG neurons, 10, 30, 100, 300 nM; for p-eIF2α levels: ISRIB 200 nM
# Experimental: as §1, §2, §3, §4, §5, §6, §7, §8, §9, §10, §11, §12
# (§13) incubated with 1:2 diluted hydrogen peroxide in distilled water for 10 min at r oom temper ature and washed twice in distilled water. The protease IV was applied to each section and incubated for 5 min at room temperature. Slides were w ashed twice in 1X PBS and RNA scope was performed immediately. A mixture of probes - Tmem97, Scn10a, and Fabp7 – was hybridized for 2 hours at 40 °C in a humidity control tray
# [4] = system: models of traumatic brain injury (TBI); details: blast injury and controlled cortical impact models; cited from earlier work
# retinal ganglion cells = system: retinal ganglion cells; parameters: method as in PMID 36456686; details: ischemia/reperfusion injury; cited from earlier work
# [5] = system: mouse model of neuropathic pain; parameters: method as in PMID 28644012, PMID 27926996; details: cited from earlier work; for mechanical hypersensitivity / antinociceptive effect: mouse neuropathic pain model
# [6] = system: animal models of age-related neurodegeneration; parameters: method as in PMID 27926996, PMID 29426225; details: cited from earlier work
# [7] = system: neuronal toxicity induced by mutant huntingtin protein; parameters: method as in PMID 36108101; details: model of Huntington's disease; cited from earlier work
# BiP in mouse DRG neurons = assay: BiP immunocytochemistry in cultured DRG neurons; type: cell-based; details: ISRIB 200 nM
# Experimental: as §1, §2, §3, §4, §5, §6, §7, §8, §9, §10, §11, §12, §13
# [8] = system: MGO-induced mechanical hypersensitivity, wild-type mice; assay: Methylglyoxal-induced mechanical hypersensitivity; type: in vivo, mouse
# neurite outgrowth = system: neurite outgrowth; parameters: method as in PMID 31836389; details: cited from earlier work
# BZP Rat Brain = assay: PDSP competitive binding assay; details: dose response curve
# [9] = system: p-eIF2α in human DRG neurons; assay: p-eIF2α immunocytochemistry in cultured human DRG neurons; type: cell-based; details: MGO 1 µM
compound,measurement,setting,value
O=C(O)CCCc1ccccc1 [4-PBA],duration of efficacy on mechanical hypersensitivity in vivo,[1],hours
"N#Cc1c(O)c2c(-c3ccc(-c4ccccc4O)cc3)csc2[nH]c1=O [A769662, reference compound]",p-ACC levels,[2],elevate; also recorded: increased p-ACC levels in both wild-type and TMEM97KO neurons
"CCCN1CCN(c2ccc3c(c2)C2CC3CCN2C(=O)OCc2ccccc2)CC1 (stereo not shown) [DKR-1677, reference compound]",phosphorylation of eIF2α,[3],promote the phosphorylation of eIF2α; also recorded: stimulate the ISR by promoting the phosphorylation of eIF2α
same,protection in traumatic brain injury,[4],protective in two different models of traumatic brain injury
same,protection of retinal ganglion cells,retinal ganglion cells,protects retinal ganglion cells from ischemia/reperfusion injury
CN1CCN(c2ccc3c(c2)C2CC3CCN2C(=O)OCc2ccccc2)CC1 (stereo not shown) [SAS-0132],phosphorylation of eIF2α,[3],promote the phosphorylation of eIF2α; also recorded: stimulate the ISR by promoting the phosphorylation of eIF2α
same,effect on the antinociceptive effects of UKH-1114,[5],inhibit the antinociceptive effects of UKH-1114; also recorded: blocks the antinociceptive activity of UKH-1114
same,mechanical hypersensitivity / antinociceptive effect,[5],has no antinociceptive effect on its own
same,neuroprotection and cognitive performance,[6],neuroprotective and improves cognitive performance
OCCCN1CCCC2CC1c1cc(-c3ccc(C(F)(F)F)cc3)ccc12 (stereo not shown) [UKH-1114],mechanical hypersensitivity / antinociceptive effect,[5],alleviates mechanical hypersensitivity following nerve injury
same,neuronal toxicity,[7],reduces neuronal toxicity
"O=C(COc1ccc(Cl)cc1)NC1CCC(NC(=O)COc2ccc(Cl)cc2)CC1 (stereo not shown) [ISRIB, reference compound]",p-eIF2α levels,[3]; TMEM97KO mouse DRG neurons,failed to change p-eIF2α immunoreactivity
same,p-eIF2α levels,[3]; wild-type mouse DRG neurons,reduced p-eIF2α levels in wild-type neurons
same,BiP levels,BiP in mouse DRG neurons; TMEM97KO mouse DRG neurons,reduce BiP levels
same,BiP levels,BiP in mouse DRG neurons; wild-type mouse DRG neurons,reduce BiP levels
same,time after drug administration at which antiallodynic effects were observed,[8]; ISRIB 2.5 mg/kg IP,3 h
same,MGO-induced mechanical hypersensitivity,"[8]; MGO 20 ng intraplantar, FEM-1689 20 mg/kg IV or ISRIB 2.5 mg/kg IP 24 h after MGO",transient; also recorded: reverted to a hypersensitive state 24 h after injection
same,neurite outgrowth,neurite outgrowth,enhances neurite outgrowth
same,duration of efficacy on mechanical hypersensitivity in vivo,[1],hours
"O=C1CN=C(c2ccccc2Cl)c2cc([N+](=O)[O-])ccc2N1 [clonazepam, reference compound]","LogKi, BZP Rat Brain",BZP Rat Brain; given as LogKi with negative sign,-8.89
same,Ki,"BZP Rat Brain; read-out: Ki, BZP Rat Brain",1.29 nM
"CC(=O)C=O [MGO, Methylglyoxal, reference compound]",p-eIF2α levels,[9],increased p-eIF2α levels
